Measurements as given in patent US11358936B2, “Lysyl oxidase-like 2 inhibitors and uses thereof” (PharmAkea, Inc., priority 2015, dated 2022).
pIC50: −log10 of the molar value. Where a name gives a salt, the structure may show the parent alone.

What follows are compounds tested against human LOXL2 (Homo sapiens (Human), UniProt Q9Y4K0) (assay: Human LOXL2 Amine Oxidase Activity Assay (Amplex Red fluorescence)). Settings: IC50, concentrated conditioned media from CHO cells stably expressing human LOXL2; 2 h at 37° C. preincubation; DAP substrate.
Assay type: biochemical
Description: LOXL2 amine oxidase activity is evaluated by measuring Amplex Red fluorescence using 10-20× concentrated conditioned media from CHO cells stably expressing human LOXL2. To assay for amine oxidase activity, 10 μL of the concentrated conditioned media is incubated with 2 μL of test compound in DMSO and 73 μL Assay Buffer (50 mM Borate Buffer, pH8) for 2 h at 37° C. After the 2 h incubation, 5 μl of 10 mM 1,5-Diaminopentane (DAP) diluted in Assay Buffer and 10 μl of Amplex Red Mix (8.5 μl Assay Buffer+0.5 μl of 10 mM Amplex Red+1 μl of 500 U/ml Horseradish Peroxidase) are added and the plate mixed and immediately placed on the FlexStaion for fluorescence measurements. Fluorescence is read in kinetic mode every 2 min for 1 hour at excitation=544 and emission=590. The amine oxidase activity is calculated from the slope of the linear portion of the curve.

human LOXL2, sequence (Q9Y4K0 26-774): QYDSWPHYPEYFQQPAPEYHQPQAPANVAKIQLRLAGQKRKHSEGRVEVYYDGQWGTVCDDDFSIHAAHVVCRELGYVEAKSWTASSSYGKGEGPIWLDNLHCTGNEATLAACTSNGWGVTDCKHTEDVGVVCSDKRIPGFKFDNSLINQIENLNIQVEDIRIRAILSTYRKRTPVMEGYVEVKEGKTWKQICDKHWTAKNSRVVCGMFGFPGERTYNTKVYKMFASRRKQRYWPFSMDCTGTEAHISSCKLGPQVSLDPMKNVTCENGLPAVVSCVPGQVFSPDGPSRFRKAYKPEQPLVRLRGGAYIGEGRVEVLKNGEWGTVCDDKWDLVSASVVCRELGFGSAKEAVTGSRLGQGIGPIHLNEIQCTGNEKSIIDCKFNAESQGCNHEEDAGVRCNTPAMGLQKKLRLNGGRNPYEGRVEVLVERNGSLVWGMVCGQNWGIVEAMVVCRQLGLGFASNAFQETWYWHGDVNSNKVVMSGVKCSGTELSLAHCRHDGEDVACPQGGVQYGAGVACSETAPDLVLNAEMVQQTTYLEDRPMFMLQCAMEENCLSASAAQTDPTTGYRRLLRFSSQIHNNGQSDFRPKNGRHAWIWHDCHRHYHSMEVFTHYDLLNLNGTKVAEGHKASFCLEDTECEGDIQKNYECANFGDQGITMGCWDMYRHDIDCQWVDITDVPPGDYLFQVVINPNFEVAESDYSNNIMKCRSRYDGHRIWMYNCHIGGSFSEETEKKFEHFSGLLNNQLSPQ

Row | SMILES | pIC50
1 | NCc1ccnc(NC(=O)CC(F)(F)F)c1 [Compound 4-14, trifluoroacetate] | 6.00 to 6.52

Same assay, conditions: concentrated conditioned media from CHO cells stably expressing human LOXL2; 2 h at 37° C. preincubation; DAP substrate; read-out: IC50

Row | SMILES | pIC50
2 | NCc1ccnc(Oc2cccc3c2CCC(=O)N3Cc2ccc(F)cc2F)c1 [Compound 2-36, 5-((4-(Aminomethyl)pyridin-2-yl)oxy)-1-(2,4-difluorobenzyl)-3,4-dihydroquinolin-2(1H)-one hydrochloride] | > 6.52
3 | NCc1ccnc(N2C[C@@H](O)[C@H](F)C2)c1 (racemic) [Compound 2-1] | < 6.00
4 | NCc1ccnc(-c2ccc(C(=O)NCc3ccccc3)cc2)c1 [Compound 1-4, 4-(4-(Aminomethyl)pyridin-2-yl)-N-benzylbenzamide hydrochloride] | > 6.52
5 | COCCNC(=O)c1cc(CN)ccn1 [Compound 4-13, 4-(Aminomethyl)-N-(2-methoxyethyl)picolinamide hydrochloride] | > 6.52
6 | NCc1ccnc(-c2ccc(C(=O)N3CCC(O)(C(F)(F)F)C3)cc2)c1 (racemic) [Compound 1-2, Racemic-(4-(4-(aminomethyl)pyridin-2-yl)phenyl)(3-hydroxy-3-(trifluoromethyl)pyrrolidin-1-yl)methanone hydrochloride] | > 6.52
7 | NCc1ccnc(-c2cccc(C(=O)N3CCC(O)(C(F)(F)F)C3)c2)c1 (racemic) [Compound 1-6, Racemic-(3-(4-(aminomethyl)pyridin-2-yl)phenyl)(3-hydroxy-3-(trifluoromethyl)pyrrolidin-1-yl)methanone hydrochloride] | > 6.52
8 | CCCCCCCCCCCCCNC(=O)c1cccc(Oc2cc(CN)ccn2)c1 [Compound 1-44, 3-((4-(Aminomethyl)pyridin-2-yl)oxy)-N-tridecylbenzamide hydrochloride] | > 6.52
9 | Cc1ccc(C(=O)Nc2cc(CN)ccn2)c(F)c1 [Compound 2-42, N-(4-(Aminomethyl)pyridin-2-yl)-2-fluoro-4-methylbenzamide trifluoroacetate] | 6.00 to 6.52
10 | COc1ccc(Cn2c(C)cc3c(Oc4cc(CN)ccn4)cccc32)cn1 [Compound 2-13, (2-((1-((6-Methoxypyridin-3-yl)methyl)-2-methyl-1H-indol-4-yl)oxy)pyridin-4-yl)methanamine trifluoroacetate] | > 6.52
11 | COC(=O)c1ccc(CNC(=O)c2cccc(Oc3cc(CN)ccn3)c2)cc1 [Compound 1-33, Methyl 4-((3-((4-(aminomethyl)pyridin-2-yl)oxy)benzamido)methyl)benzoate hydrochloride] | > 6.52
12 | NCc1ccnc(Oc2cccc3c2ccn3CC(=O)N2CCCC(O)(C(F)(F)F)C2)c1 (single isomer, unassigned) [Compound 2-29, (R) or (S)-2-(4-((4-(aminomethyl)pyridin-2-yl)oxy)-1H-indol-1-yl)-1-(3-hydroxy-3-(trifluoromethyl)piperidin-1-yl)ethan-1-one hydrochloride] | 6.00 to 6.52
13 | NCc1ccnc(Oc2cccc(C(=O)Nc3cccc(C(=O)O)c3)c2)c1 [Compound 1-28, 3-(3-((4-(Aminomethyl)pyridin-2-yl)oxy)benzamido)benzoic acid hydrochloride] | > 6.52
14 | NCc1ccnc(OCc2ccccc2)c1 [Compound 4-6, 2-Benzyloxy-4-(aminomethyl)pyridine] | < 6.00
15 | NCc1ccnc(Oc2cccc(C(=O)NCc3ccc(-n4ccnc4)c(F)c3)c2)c1 [Compound 1-37, 3-((4-(Aminomethyl)pyridin-2-yl)oxy)-N-(3-fluoro-4-(1H-imidazol-1-yl)benzyl)benzamide dihydrochloride] | > 6.52
16 | NCc1ccnc(Oc2cccc3c2c(Br)cn3CCc2ccc(F)cc2)c1 [Compound 2-23, (2-((3-Bromo-1-(4-fluorophenethyl)-1H-indol-4-yl)oxy)pyridin-4-yl)methanamine hydrochloride] | > 6.52
17 | NCc1ccnc(Oc2cccc3c2ccn3-c2ccc(F)cc2)c1 [Compound 2-18, (2-((1-(4-Fluorophenyl)-1H-indol-4-yl)oxy)pyridin-4-yl)methanamine hydrochloride] | > 6.52
18 | NCc1ccnc(Oc2cccc3c2ccn3-c2nc3ccc(F)cc3s2)c1 [Compound 2-21, (2-((1-(6-Fluorobenzo[d]thiazol-2-yl)-1H-indol-4-yl)oxy)pyridin-4-yl)methanamine hydrochloride] | > 6.52
19 | NCc1ccnc(Oc2cccc3c2ccn3Cc2ccc3ccccc3n2)c1 [Compound 2-16, (2-((1-(Quinolin-2-ylmethyl)-1H-indol-4-yl)oxy)pyridin-4-yl)methanamine hydrochloride] | > 6.52
20 | NCc1ccnc(-c2cccc(C(=O)NCc3ccccc3)c2)c1 [Compound 1-8, 3-(4-(Aminomethyl)pyridin-2-yl)-N-benzylbenzamide hydrochloride] | > 6.52
21 | NCc1ccnc(OC2CCCCC2)c1 [Compound 4-7, 2-Cyclohexyloxy-4-(aminomethyl)pyridine] | > 6.52

Row | SMILES | pIC50
22 | NCc1ccnc(Oc2cccc(C(=O)Nc3ccccc3)c2)c1 [Compound 1-17, 3-((4-(Aminomethyl)pyridin-2-yl)oxy)-N-phenylbenzamide hydrochloride] | > 6.52
23 | Cc1cn(Cc2ccc(F)cc2F)c2cccc(Oc3cc(CN)ccn3)c12 [Compound 2-12, (2-((1-(2,4-Difluorobenzyl)-3-methyl-1H-indol-4-yl)oxy)pyridin-4-yl)methanamine trifluoroacetate] | > 6.52
24 | COc1ccc(-n2ccc3c(Oc4cc(CN)ccn4)cccc32)cn1 [Compound 2-20, (2-((1-(6-Methoxypyridin-3-yl)-1H-indol-4-yl)oxy)pyridin-4-yl)methanamine hydrochloride] | > 6.52
25 | NCc1ccnc(Oc2cccc(C(=O)NCc3cc4ccccc4s3)c2)c1 [Compound 1-42, 3-((4-(Aminomethyl)pyridin-2-yl)oxy)-N-(benzo[b]thiophen-2-ylmethyl)benzamide hydrochloride] | > 6.52
26 | NCc1ccnc(Oc2cccc3c2ccn3Cc2ccccc2)c1 [Compound 2-10, (2-((1-Benzyl-1H-indol-4-yl)oxy)pyridin-4-yl)methanamine hydrochloride] | > 6.52
27 | NCc1ccnc(Oc2cccc3c2ccn3CCc2ccc(F)cc2)c1 [Compound 2-22, (2-((1-(4-Fluorophenethyl)-1H-indol-4-yl)oxy)pyridin-4-yl)methanamine hydrochloride] | > 6.52
28 | NCc1ccnc(Oc2cccc(C(=O)NCc3ccc(F)cc3F)c2)c1 [Compound 1-30, 3-((4-(Aminomethyl)pyridin-2-yl)oxy)-N-(2,4-difluorobenzyl)benzamide hydrochloride] | > 6.52
29 | NCc1ccnc(Oc2ccc(C(=O)Nc3ccccc3)cc2)c1 [Compound 1-13, 4-((4-(Aminomethyl)pyridin-2-yl)oxy)-N-phenylbenzamide hydrochloride] | > 6.52
30 | COCCNC(=O)c1cccc(-c2cc(CN)ccn2)c1 [Compound 1-5, 3-(4-(Aminomethyl)pyridin-2-yl)-N-(2-methoxyethyl)benzamide hydrochloride] | > 6.52
31 | CCOC(=O)c1cccc(NC(=O)c2cccc(Oc3cc(CN)ccn3)c2)c1 [Compound 1-27, Ethyl 3-(3-((4-(aminomethyl)pyridin-2-yl)oxy)benzamido)benzoate hydrochloride] | > 6.52
32 | COc1cccc(NC(=O)c2cccc(Oc3cc(CN)ccn3)c2)c1 [Compound 1-19, 3-((4-(Aminomethyl)pyridin-2-yl)oxy)-N-(3-methoxyphenyl)benzamide hydrochloride] | > 6.52
33 | Cc1cc2c(Oc3cc(CN)ccn3)cccc2n1Cc1ccc(F)cc1F [Compound 2-11, (2-((1-(2,4-Difluorobenzyl)-2-methyl-1H-indol-4-yl)oxy)pyridin-4-yl)methanamine trifluoroacetate] | > 6.52
34 | Cc1ccc(Cl)cc1NC(=O)c1cccc(-c2cc(CN)ccn2)c1 [Compound 1-9, 3-(4-(Aminomethyl)pyridin-2-yl)-N-(5-chloro-2-methylphenyl)benzamide hydrochloride] | > 6.52
35 | COc1ccc(NC(=O)c2cccc(Oc3cc(CN)ccn3)c2)cc1 [Compound 1-20, 3-((4-Aminomethyl)pyridin-2-yl)oxy)-N-(4-methoxyphenyl)benzamide hydrochloride] | > 6.52
36 | NCc1ccnc(Oc2cccc3c2ccn3C(=O)Nc2ccccc2)c1 [Compound 2-25, 4-((4-(Aminomethyl)pyridin-2-yl)oxy)-N-phenyl-1H-indole-1-carboxamide hydrochloride] | > 6.52
37 | COCCNC(=O)c1ccc(Oc2cc(CN)ccn2)cc1 [Compound 1-11, 4-((4-(Aminomethyl)pyridin-2-yl)oxy)-N-(2-methoxyethyl)benzamide hydrochloride] | 6.00 to 6.52
38 | COC(=O)c1ccc(NC(=O)c2cccc(Oc3cc(CN)ccn3)c2)cc1 [Compound 1-26, Methyl 4-(3-((4-(amindimethyl)pyridin-2-yl)oxy)benzamido)benzoate hydrochloride] | > 6.52
39 | NCc1ccnc(N2CCC(O)(C(F)(F)F)C2)c1 (racemic) [Compound 2-2, Racemic-1-(4-(Aminomethyl)pyridin-2-yl)-3-(trifluoromethyl)pyrrolidin-3-ol] | < 6.00
40 | NCc1ccncc1F [Compound 4-2, 3-Fluoro-4-(aminomethyl)pyridine] | 6.00 to 6.52
41 | NCc1ccnc(Oc2cccc(C(=O)N3CCc4ccccc4C3)c2)c1 [Compound 1-41, (3-((4-(Aminomethyl)pyridin-2-yl)oxy)phenyl)(3,4-dihydroisoquinolin-2(1H)-yl)methanone trifluoroacetate] | > 6.52
